Test results: the supplement of paper PMC8617591

What was measured:
[1] = test system: Mycobacterium tuberculosis Erdman (autoluminescent); assay: total FIC50 (Loewe) at 50% inhibition, three-drug combination (log2); higher = more antagonistic
Protocol: (§1)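 DiaMOND equipotent three-drug combination dose responses (10 doses, 1.5- or 2-fold spacing, centred on IC90) against autoluminescent M. tuberculosis Erdman in 8 in vitro models. Read-out is OD600, or luminescence for the intracellular and dormancy models, normalised to untreated wells. Hill-fit Einf, AUC25 and GRinf are potency metrics; FIC50 and FIC90 are total Loewe fractional inhibitory concentrations as log2 (negative = synergy).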

[2] = test system: Mycobacterium tuberculosis Erdman (autoluminescent); assay: total FIC90 (Loewe) at 90% inhibition, three-drug combination (log2); higher = more antagonistic
Protocol: as §1

[3] = test system: Mycobacterium tuberculosis Erdman (autoluminescent); assay: Einf, fitted maximum growth inhibition of three-drug combination (fraction); higher = stronger maximal inhibition
Protocol: as §1

[4] = test system: Mycobacterium tuberculosis Erdman (autoluminescent); assay: AUC25, normalised area under dose response up to IC25 (three-drug combination) (fraction (0-1)); higher = more potent at low dose
Protocol: as §1

[5] = test system: Mycobacterium tuberculosis Erdman (autoluminescent); assay: GRinf, maximum normalised growth rate inhibition (three-drug combination) (unitless (-1 to 1)); higher = less effect (negative = killing)
Protocol: as §1

COc1nc2ccc(Br)cc2cc1[C@@H](c1ccccc1)[C@@](O)(CCN(C)C)c1cccc2ccccc12 [bedaquiline] + CC(C)/N=c1\cc2n(-c3ccc(Cl)cc3)c3ccccc3nc-2cc1Nc1ccc(Cl)cc1 [clofazimine] + CC(=O)NC[C@H]1CN(c2ccc(N3CCOCC3)c(F)c2)C(=O)O1 [linezolid]
Conditions	AUC25, [4]	Einf, [3]	GRinf, [5]	total FIC50, [1]	total FIC90, [2]
in vitro model: acidic pH 5.7, time point: constant (~7 days, model-specific)	0.0792	0.874	-0.465	0.0418	–
in vitro model: acidic pH 5.7, time point: terminal (~4-5 doublings, model-specific)	0.0781	0.97	-0.331	0.786	0.299
in vitro model: intracellular J774, time point: constant = terminal	–	0.929	-0.17	–	0.186

Conditions	AUC25, [4]	Einf, [3]	GRinf, [5]	total FIC50, [1]	total FIC90, [2]
in vitro model: butyrate, time point: constant (~7 days, model-specific)	0.0701	0.947	-0.105	0.0722	-0.55
in vitro model: butyrate, time point: terminal (~4-5 doublings, model-specific)	0.0486	0.977	-0.115	0.112	-0.466
in vitro model: cholesterol 0.05 mM, time point: constant (~7 days, model-specific)	0.14	0.769	-0.304	-0.461	–
in vitro model: cholesterol 0.05 mM, time point: terminal (~4-5 doublings, model-specific)	0.137	0.951	-0.374	-0.129	-0.783
in vitro model: cholesterol-high 0.2 mM, time point: constant (~7 days, model-specific)	0.0852	0.944	-0.281	-0.437	-0.594
in vitro model: cholesterol-high 0.2 mM, time point: terminal (~4-5 doublings, model-specific)	0.0962	0.999	-0.488	-0.195	-0.484
in vitro model: dormancy (butyrate + nitrate, low O2), time point: constant (~7 days, model-specific)	0.0703	0.913	0.219	-0.36	-0.911
in vitro model: dormancy (butyrate + nitrate, low O2), time point: terminal (~4-5 doublings, model-specific)	0.0497	0.99	-0.161	-0.24	-0.848
in vitro model: standard 7H9 glycerol, time point: constant = terminal	0.0911	0.962	-0.0979	-0.27	-0.871
in vitro model: valerate, time point: constant (~7 days, model-specific)	0.134	0.931	-0.127	0.0537	-0.00887
in vitro model: valerate, time point: terminal (~4-5 doublings, model-specific)	0.0869	0.944	-0.0541	0.263	1.19

NNC(=O)c1ccncc1 [isoniazid] + O=[N+]([O-])c1cn2c(n1)OC[C@@H](OCc1ccc(OC(F)(F)F)cc1)C2 [pretomanid] + NC(=O)c1cnccn1 [pyrazinamide]
Conditions	AUC25, [4]	Einf, [3]	GRinf, [5]	total FIC50, [1]	total FIC90, [2]
in vitro model: acidic pH 5.7, time point: constant (~7 days, model-specific)	0.0986	0.815	-0.16	-0.198	–
in vitro model: acidic pH 5.7, time point: terminal (~4-5 doublings, model-specific)	0.0871	0.976	-0.481	-0.0964	-0.184
in vitro model: intracellular J774, time point: constant = terminal	–	1	-0.492	–	0.732

Conditions	AUC25, [4]	Einf, [3]	GRinf, [5]	total FIC50, [1]	total FIC90, [2]
in vitro model: butyrate, time point: constant (~7 days, model-specific)	0.0971	0.946	-0.0723	0.158	0.768
in vitro model: butyrate, time point: terminal (~4-5 doublings, model-specific)	0.0657	0.972	-0.0263	0.227	0.423
in vitro model: cholesterol 0.05 mM, time point: constant (~7 days, model-specific)	0.106	0.696	-0.21	–	–
in vitro model: cholesterol 0.05 mM, time point: terminal (~4-5 doublings, model-specific)	0.0922	0.924	-0.353	5.94	–
in vitro model: cholesterol-high 0.2 mM, time point: constant (~7 days, model-specific)	0.0717	0.874	-0.172	0.524	–
in vitro model: cholesterol-high 0.2 mM, time point: terminal (~4-5 doublings, model-specific)	0.0681	1	-0.653	0.832	0.548
in vitro model: dormancy (butyrate + nitrate, low O2), time point: constant (~7 days, model-specific)	0.0747	0.882	0.238	-0.215	-0.286
in vitro model: dormancy (butyrate + nitrate, low O2), time point: terminal (~4-5 doublings, model-specific)	0.0455	0.984	-0.172	-0.137	-0.122
in vitro model: standard 7H9 glycerol, time point: constant = terminal	0.0648	0.923	0.0829	0.311	–
in vitro model: valerate, time point: constant (~7 days, model-specific)	0.115	0.888	-0.0645	-0.24	–
in vitro model: valerate, time point: terminal (~4-5 doublings, model-specific)	0.0719	0.922	0.077	0.0468	0.0214

CC[C@@H](CO)NCCN[C@@H](CC)CO [ethambutol] + CO[C@H]1/C=C/O[C@@]2(C)Oc3c(C)c(O)c4c(O)c(c(/C=N/N5CCN(C6CCCC6)CC5)c(O)c4c3C2=O)NC(=O)/C(C)=C\C=C\[C@H](C)[C@H](O)[C@@H](C)[C@@H](O)[C@@H](C)[C@H](OC(C)=O)[C@@H]1C [rifapentine] + CO[C@H]1/C=C/O[C@@]2(C)Oc3c(C)c(O)c4c(O)c(c(/C=N/N5CCN(C)CC5)c(O)c4c3C2=O)NC(=O)/C(C)=C\C=C\[C@H](C)[C@H](O)[C@@H](C)[C@@H](O)[C@@H](C)[C@H](OC(C)=O)[C@@H]1C [rifampicin]
Conditions	AUC25, [4]	Einf, [3]	GRinf, [5]	total FIC50, [1]	total FIC90, [2]
in vitro model: acidic pH 5.7, time point: constant (~7 days, model-specific)	0.0788	0.863	-0.0676	-0.0556	–
in vitro model: acidic pH 5.7, time point: terminal (~4-5 doublings, model-specific)	0.0407	0.966	-0.0521	0.0683	-0.673
in vitro model: intracellular J774, time point: constant = terminal	–	0.964	-0.359	–	-2.2

Conditions	AUC25, [4]	Einf, [3]	GRinf, [5]	total FIC50, [1]	total FIC90, [2]
in vitro model: butyrate, time point: constant (~7 days, model-specific)	0.0871	0.924	-0.00846	0.0694	–
in vitro model: butyrate, time point: terminal (~4-5 doublings, model-specific)	0.0718	0.965	-0.0114	0.0725	-0.469
in vitro model: cholesterol 0.05 mM, time point: constant (~7 days, model-specific)	0.12	0.674	-0.208	-0.109	–
in vitro model: cholesterol 0.05 mM, time point: terminal (~4-5 doublings, model-specific)	0.0846	0.884	-0.0993	-0.106	–
in vitro model: cholesterol-high 0.2 mM, time point: constant (~7 days, model-specific)	0.0408	0.947	-0.442	0.69	–
in vitro model: cholesterol-high 0.2 mM, time point: terminal (~4-5 doublings, model-specific)	0.0471	1	-0.703	0.74	0.613
in vitro model: dormancy (butyrate + nitrate, low O2), time point: constant (~7 days, model-specific)	0.066	0.854	0.363	-0.0614	–
in vitro model: dormancy (butyrate + nitrate, low O2), time point: terminal (~4-5 doublings, model-specific)	0.0493	0.981	-0.104	0.286	-0.687
in vitro model: standard 7H9 glycerol, time point: constant = terminal	0.0475	0.909	0.0838	0.231	–
in vitro model: valerate, time point: constant (~7 days, model-specific)	0.0622	0.889	0.0114	-0.0551	–
in vitro model: valerate, time point: terminal (~4-5 doublings, model-specific)	0.0314	0.936	0.0132	0.133	-0.823
